Experimental data: patent EP0346929B1, “Treating agent for Raynaud's disease” (DAIICHI PHARMACEUTICAL CO., LTD., priority 1988, dated 1989)
Structures can show the parent of a compound that is named as a salt.

Test system: Laurate-Induced Peripheral Arterial Occlusive Diseases in Rats
Assay: Effect on progression of laurate-induced peripheral arterial occlusive diseases in rats
Assay type: in vivo
Experimental: Effect on Progression of Laurate-Induced Peripheral Arterial Occlusive Diseases in Rats
Male Wister-Imamichi rats weighing from 370 to 422 g (purchased from Dobutsu Hanshoku Kenkyukai) were used as test animals.
Rats were anesthetized with pentobarbital (50 mg/kg, i.p.), and the right femoral artery was exposed by surgical incision. 0.1 mℓ of a sodium laurate solution (1 mg of lauric acid/mℓ-saline, pH=8.0) was injected to the right femoral artery, haemostasis was secured by application of a surgical binding "Alonalpha" (a trade name, produced by Toa Gosei Kagaku Co.) to the punctured site of the artery, and the incision was closed with the surgical binding. The animals were then fed ad lib.
The degree of the lesions was graded to 0 - IV, 4 days after the operation for gangrene and 6 days after the operation for mummification or falling off as follows: normal apperance, 0; the affected region was limited to the nail parts, I; to the fingers, II; to the whole paw, III; and extended to the lower leg, IV.
As a test compound, 6-(1-imidazolylmethyl)-5,6,7,8-tetrahydronaphthalene-2-carboxylic acid hydrochloride 1/2 hydrate (hereinafter referred to as Compound A) was dissolved in physiological saline and administered to the left femoral vein at a dose of 3 mg/5 mℓ/kg 5 minutes before the laurate injection to the femoral artery. The effect of the Compound A on suppression of the lesions were examined. The animals in control group were injected with 5 mℓ/kg of saline alone in place of the Compound A. The results obtained are shown in Table 1 below.

Question: O=C(O)c1ccc2c(c1)CCC(Cn1ccnc1)C2 (centres unmarked) [Compound A, 6-(1-imidazolylmethyl)-5,6,7,8-tetrahydronaphthalene-2-carboxylic acid hydrochloride 1/2 hydrate] was tested. Which “Number of Animals Suffering From: Gangrene After 4 Days, grade 0” value (grade 0 = normal apperance, 3 mg/5 mℓ/kg into left femoral vein 5 minutes before laurate injection, 4 days after operation) did it give?
Answer: 2

Question: What about the “Number of Animals Suffering From: Mummification or Falling Off After 6 Days, grade 0” value (grade 0 = normal apperance, 3 mg/5 mℓ/kg into left femoral vein 5 minutes before laurate injection, 6 days after operation) of the same compound?
Answer: 2

Question: And the “Number of Animals Suffering From: Gangrene After 4 Days, grade I” value (grade I = affected region limited to the nail parts, 3 mg/5 mℓ/kg into left femoral vein 5 minutes before laurate injection, 4 days after operation)?
Answer: 3

Question: And the “Number of Animals Suffering From: Mummification or Falling Off After 6 Days, grade I” value (grade I = affected region limited to the nail parts, 3 mg/5 mℓ/kg into left femoral vein 5 minutes before laurate injection, 6 days after operation)?
Answer: 1

Question: What about the “Number of Animals Suffering From: Gangrene After 4 Days, grade II” value (grade II = affected region limited to the fingers, 3 mg/5 mℓ/kg into left femoral vein 5 minutes before laurate injection, 4 days after operation) of the same compound?
Answer: 2

Question: And the “Number of Animals Suffering From: Mummification or Falling Off After 6 Days, grade II” value (grade II = affected region limited to the fingers, 3 mg/5 mℓ/kg into left femoral vein 5 minutes before laurate injection, 6 days after operation)?
Answer: 3

Question: What about the “Number of Animals Suffering From: Mummification or Falling Off After 6 Days, grade III” value (grade III = affected region limited to the whole paw, 3 mg/5 mℓ/kg into left femoral vein 5 minutes before laurate injection, 6 days after operation) of the same compound?
Answer: 1

Question: What about the grade of lesions (intravenous injection of 3 mg/kg, compared with control group) of the same compound?
Answer: reduced the grade of lesions
